From PubChem BioAssay AID248 (DTP/NCI, 2004)
Values joined by “and” are separate entries in the source; they are usually repeats but may differ in a detail not shown here. Equal values may be shown once. Inconclusive results and toxic doses are left out.

Test system: L1210 leukemia ip in BDF1 mice, survival T/C
Assay: NCI In Vivo Anticancer Drug Screen. Data for tumor model L1210 Leukemia (intraperitoneal) in B6D2F1 (BDF1) mice
Details: endpoint: mean survival time, higher = longer survival
Summary of the method: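 Antitumor effect is assessed in tumor-bearing animals. Survival in the compound arm is compared with a vehicle-dosed control arm and expressed as their quotient.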

[1] = dose: 100.0 mg/kg/injection, schedule: Q01DX001 (ip), vehicle: saline
[2] = dose: 200.0 mg/kg/injection, schedule: Q01DX001 (ip), vehicle: saline
[3] = dose: 100.0 mg/kg/injection, schedule: Q04DX003 (ip), vehicle: Klucel (hydroxypropylcellulose) (HPC)
[4] = dose: 200.0 mg/kg/injection, schedule: Q04DX003 (ip), vehicle: Klucel (hydroxypropylcellulose) (HPC)
[5] = dose: 400.0 mg/kg/injection, schedule: Q04DX003 (ip), vehicle: Klucel (hydroxypropylcellulose) (HPC)
[6] = dose: 400.0 mg/kg/injection, schedule: Q01DX001 (ip), vehicle: saline
[7] = dose: 100.0 mg/kg/injection, schedule: Q04DX003 (ip), vehicle: saline

## O=NN(CCCl)C(=O)Nc1cc(NC(=O)N(CCCl)N=O)cc(C(=O)O)c1
dose: 0.22 mg/kg/injection, schedule: Q01DX009 (ip), vehicle: saline
  T/C: 110 % of control
dose: 0.34 mg/kg/injection, schedule: Q01DX009 (ip), vehicle: saline
  T/C: 117 % of control
dose: 0.52 mg/kg/injection, schedule: Q01DX009 (ip), vehicle: saline
  T/C: 290 % of control
dose: 0.62 mg/kg/injection, schedule: Q01DX001 (ip), vehicle: carboxymethylcellulose (CMC)
  T/C: 112 % of control
dose: 0.83 mg/kg/injection, schedule: Q04DX003 (ip), vehicle: saline
  T/C: 114 % of control
dose: 1.25 mg/kg/injection, schedule: Q01DX001 (ip), vehicle: carboxymethylcellulose (CMC)
  T/C: 123 % of control
dose: 1.25 mg/kg/injection, schedule: Q04DX003 (ip), vehicle: saline
  T/C: 122 % of control
dose: 1.7 mg/kg/injection, schedule: Q01DX001 (ip), vehicle: saline
  T/C: 155 % of control
dose: 2.6 mg/kg/injection, schedule: Q01DX001 (ip), vehicle: saline with Tween-80
  T/C: 151 % of control
dose: 5.0 mg/kg/injection, schedule: Q01DX009 (ip), vehicle: Klucel (hydroxypropylcellulose) (HPC)
  T/C: 93 % of control
dose: 5.0 mg/kg/injection, schedule: Q01DX009 (ip), vehicle: saline
  T/C: 162 % of control
dose: 6.6 mg/kg/injection, schedule: Q04DX003 (ip), vehicle: saline
  T/C: 153 % of control
dose: 9.0 mg/kg/injection, schedule: Q01DX001 (ip), vehicle: saline
  T/C: 152 % of control
dose: 10.0 mg/kg/injection, schedule: Q01DX009 (ip), vehicle: Klucel (hydroxypropylcellulose) (HPC)
  T/C: 150 % of control and 160 % of control
dose: 10.0 mg/kg/injection, schedule: Q01DX009 (ip), vehicle: saline
  T/C: 212 % of control
dose: 12.0 mg/kg/injection, schedule: Q01DX001 (ip), vehicle: saline
  T/C: 150 % of control
dose: 13.0 mg/kg/injection, schedule: Q04DX003 (ip), vehicle: saline
  T/C: 155 % of control
dose: 15.0 mg/kg/injection, schedule: Q01DX009 (ip), vehicle: Klucel (hydroxypropylcellulose) (HPC)
  T/C: 150 % of control
dose: 17.0 mg/kg/injection, schedule: Q01DX001 (ip), vehicle: saline with Tween-80
  T/C: 196 % of control
dose: 20.0 mg/kg/injection, schedule: Q01DX009 (ip), vehicle: Klucel (hydroxypropylcellulose) (HPC)
  T/C: 195 % of control
dose: 20.0 mg/kg/injection, schedule: Q01DX009 (ip), vehicle: saline
  T/C: 102 % of control
dose: 20.0 mg/kg/injection, schedule: Q04DX003 (ip), vehicle: saline
  T/C: 161 % of control
dose: 26.0 mg/kg/injection, schedule: Q01DX001 (ip), vehicle: saline with Tween-80
  T/C: 155 % of control
dose: 26.0 mg/kg/injection, schedule: Q01DX001 (ip), vehicle: saline
  T/C: 152 % of control

## CC12CC(O)C3c4ccc(O)cc4CCC3C1CCC2=O (stereo not given)
dose: 50.0 mg/kg/injection, schedule: Q01DX001 (ip), vehicle: carboxymethylcellulose (CMC)
  T/C: 106 % of control
dose: 100.0 mg/kg/injection, schedule: Q01DX001 (ip), vehicle: carboxymethylcellulose (CMC)
  T/C: 98 % of control
dose: 200.0 mg/kg/injection, schedule: Q01DX001 (ip), vehicle: carboxymethylcellulose (CMC)
  T/C: 104 % of control
dose: 400.0 mg/kg/injection, schedule: Q01DX001 (ip), vehicle: carboxymethylcellulose (CMC)
  T/C: 104 % of control

## COc1ccc(/C=N/NC(=O)c2ccccc2O)cc1
dose: 100.0 mg/kg/injection, schedule: Q01DX009 (ip), vehicle: Klucel (hydroxypropylcellulose) (HPC)
  T/C: 98 % of control
dose: 200.0 mg/kg/injection, schedule: Q01DX009 (ip), vehicle: Klucel (hydroxypropylcellulose) (HPC)
  T/C: 96 % of control
dose: 400.0 mg/kg/injection, schedule: Q01DX009 (ip), vehicle: Klucel (hydroxypropylcellulose) (HPC)
  T/C: 112 % of control

## c1ccc(CCN2CCCCC2)cc1
dose: 10.0 mg/kg/injection, schedule: Q01DX001 (ip), vehicle: saline
  T/C: 95 % of control
dose: 20.0 mg/kg/injection, schedule: Q01DX001 (ip), vehicle: saline
  T/C: 116 % of control
dose: 40.0 mg/kg/injection, schedule: Q01DX001 (ip), vehicle: saline
  T/C: 96 % of control

## COC(=O)/C(=C\c1ccccc1)CNC(C)(C)C
[1]
  T/C: 100 % of control
[2]
  T/C: 97 % of control

## O=NN(CCCl)C(=O)NC1CCC(Br)CC1 (stereo not given)
dose: 10.0 mg/kg/injection, schedule: Q01DX001 (ip), vehicle: saline with Tween-80
  T/C: 122 % of control
dose: 22.0 mg/kg/injection, schedule: Q01DX001 (ip), vehicle: saline with Tween-80
  T/C: 150 % of control
dose: 33.5 mg/kg/injection, schedule: Q01DX001 (ip), vehicle: saline with Tween-80
  T/C: 197 % of control
dose: 50.0 mg/kg/injection, schedule: Q01DX001 (ip), vehicle: saline with Tween-80
  T/C: 455 % of control
dose: 75.0 mg/kg/injection, schedule: Q01DX001 (ip), vehicle: saline with Tween-80
  T/C: 455 % of control
dose: 112.0 mg/kg/injection, schedule: Q01DX001 (ip), vehicle: saline with Tween-80
  T/C: 420 % of control
dose: 252.0 mg/kg/injection, schedule: Q01DX001 (ip), vehicle: saline with Tween-80
  T/C: 208 % of control

## N#C/C(=C\c1ccc2c(c1)CCC2)C(N)=O
dose: 100.0 mg/kg/injection, schedule: Q04DX003 (ip), vehicle: saline with Tween-80
  T/C: 105 % of control
dose: 200.0 mg/kg/injection, schedule: Q04DX003 (ip), vehicle: saline with Tween-80
  T/C: 95 % of control
dose: 400.0 mg/kg/injection, schedule: Q04DX003 (ip), vehicle: saline with Tween-80
  T/C: 95 % of control

## Nc1nc(-c2ccccc2N=NN2CCOCC2)nc2ccccc12
[3]
  T/C: 101 % of control
[4]
  T/C: 103 % of control
[5]
  T/C: 101 % of control

## Cc1cccc(SC(=O)Nc2ccc([N+](=O)[O-])cc2Cl)c1
dose: 100.0 mg/kg/injection, schedule: Q04DX002 (ip), vehicle: Klucel (hydroxypropylcellulose) (HPC)
  T/C: 100 % of control
dose: 200.0 mg/kg/injection, schedule: Q04DX002 (ip), vehicle: Klucel (hydroxypropylcellulose) (HPC)
  T/C: 116 % of control
dose: 400.0 mg/kg/injection, schedule: Q04DX002 (ip), vehicle: Klucel (hydroxypropylcellulose) (HPC)
  T/C: 92 % of control

## CCOC(=O)c1ccc(C)[n+]([O-])c1
dose: 50.0 mg/kg/injection, schedule: Q01DX001 (ip), vehicle: saline
  T/C: 96 % of control
[1]
  T/C: 98 % of control
[2]
  T/C: 100 % of control
[6]
  T/C: 93 % of control

## CCO/C(C)=N/c1n[n+]([O-])ccc1C
dose: 40.0 mg/kg/injection, schedule: Q04DX002 (ip), vehicle: saline
  T/C: 104 % of control
dose: 80.0 mg/kg/injection, schedule: Q04DX002 (ip), vehicle: saline
  T/C: 96 % of control
dose: 160.0 mg/kg/injection, schedule: Q04DX002 (ip), vehicle: saline
  T/C: 104 % of control

## Cc1oc2ccc(O)c(N=Nc3cccc([N+](=O)[O-])c3)c2c1C
[3]
  T/C: 97 % of control
[4]
  T/C: 101 % of control
[5]
  T/C: 109 % of control

## CCCCCc1cc[n+](CC(=O)c2ccccc2)cc1
dose: 25.0 mg/kg/injection, schedule: Q04DX003 (ip), vehicle: saline
  T/C: 100 % of control
[1]
  T/C: 93 % of control
[7]
  T/C: 87 % of control

## Oc1c(-c2ccccc2)nn(O)c1-c1ccccc1
dose: 50.0 mg/kg/injection, schedule: Q01DX009 (ip), vehicle: Klucel (hydroxypropylcellulose) (HPC)
  T/C: 105 % of control

## COC(=O)C(NC(=O)C(NC(=O)Cc1ccccc1)SCc1ccccc1)=C(C)C (stereo not given)
[7]
  T/C: 95 % of control
dose: 200.0 mg/kg/injection, schedule: Q04DX003 (ip), vehicle: saline
  T/C: 89 % of control

## CC1C(Cl)(Cl)C1(C)/C=C/C1C(C)(C)C1(Cl)Cl (stereo not given)
dose: 100.0 mg/kg/injection, schedule: Q01DX001 (ip), vehicle: other
  T/C: 260 % of control
[1]
  T/C: 106 % of control
dose: 178.0 mg/kg/injection, schedule: Q01DX001 (ip), vehicle: saline
  T/C: 101 % of control
dose: 200.0 mg/kg/injection, schedule: Q01DX001 (ip), vehicle: other
  T/C: 117 % of control
[2]
  T/C: 108 % of control
dose: 267.0 mg/kg/injection, schedule: Q01DX001 (ip), vehicle: saline
  T/C: 97 % of control
dose: 400.0 mg/kg/injection, schedule: Q01DX001 (ip), vehicle: other
  T/C: 202 % of control
[6]
  T/C: 95 % of control and 97 % of control
dose: 600.0 mg/kg/injection, schedule: Q01DX001 (ip), vehicle: saline
  T/C: 88 % of control

## CCCCCCCCCCCCOC(=O)C[n+]1cccc(C(=O)NCc2ccccc2)c1
dose: 6.25 mg/kg/injection, schedule: Q01DX009 (ip), vehicle: saline with Tween-80
  T/C: 98 % of control
dose: 12.5 mg/kg/injection, schedule: Q01DX009 (ip), vehicle: saline with Tween-80
  T/C: 94 % of control
dose: 25.0 mg/kg/injection, schedule: Q01DX009 (ip), vehicle: saline with Tween-80
  T/C: 102 % of control

## COc1ccc2cc(C)ncc2c1
[1]
  T/C: 96 % of control
[2]
  T/C: 91 % of control
[6]
  T/C: 91 % of control

## COc1ccccc1/C=C/[N+](=O)[O-]
dose: 50.0 mg/kg/injection, schedule: Q04DX003 (ip), vehicle: Klucel (hydroxypropylcellulose) (HPC)
  T/C: 95 % of control
[3]
  T/C: 101 % of control
